Data from the kinase profiling compilation of Christmann-Franck et al. (2016).

Experiments:
Assay in all cases: radiometric filter-binding kinase assay, Kinase HotSpot
Settings in all cases: compound 0.5 µM; ATP 10 µM
PIM1 (human) = PIM1 (human) (UniProt P11309)
PRKCI (human) = PRKCI (human) (UniProt P41743)
ROCK2 (human) = ROCK2 (human) (UniProt O75116)
ADRBK1 (human) = ADRBK1 (human) (UniProt P25098)
PNCK (human) = PNCK (human) (UniProt Q6P2M8)
LTK (human) = LTK (human) (UniProt P29376)
MARK4 (human) = MARK4 (human) (UniProt Q96L34)
GRK7 (human) = GRK7 (human) (UniProt Q8WTQ7)
EPHA1 (human) = EPHA1 (human) (UniProt P21709)
MARK3 (human) = MARK3 (human) (UniProt P27448)
ADRBK2 (human) = ADRBK2 (human) (UniProt P35626)
CLK1 (human) = CLK1 (human) (UniProt P49759)
PTK2 (human) = PTK2 (human) (UniProt Q05397)
CDK1 CCNA2 (human) = CDK1 CCNA2 (human) (UniProt P06493+P20248)
RAF1 (human) = RAF1 (human) (UniProt P04049)
MAPK11 (human) = MAPK11 (human) (UniProt Q15759)
ROS1 (human) = ROS1 (human) (UniProt P08922)
CHEK2 (human) = CHEK2 (human) (UniProt O96017)
[1] = tested on: MAP2K6 (human), P52564 [S207E/T211E]
WNK2 (human) = WNK2 (human) (UniProt Q9Y3S1)
MELK (human) = MELK (human) (UniProt Q14680)
STK39 (human) = STK39 (human) (UniProt Q9UEW8)
BRSK2 (human) = BRSK2 (human) (UniProt Q8IWQ3)
CSNK1G1 (human) = CSNK1G1 (human) (UniProt Q9HCP0)
TEC (human) = TEC (human) (UniProt P42680)
PDPK1 (human) = PDPK1 (human) (UniProt O15530)
LRRK2 (human) = LRRK2 (human) (UniProt Q5S007)
[2] = tested on: FLT4 (human), P35916 [Q890H]
CDK6 CCND1 (human) = CDK6 CCND1 (human) (UniProt Q00534+P24385)
CDK2 CCNE1 (human) = CDK2 CCNE1 (human) (UniProt P24941+P24864)
NEK2 (human) = NEK2 (human) (UniProt P51955)
NEK7 (human) = NEK7 (human) (UniProt Q8TDX7)
TBK1 (human) = TBK1 (human) (UniProt Q9UHD2)
RPS6KB2 (human) = RPS6KB2 (human) (UniProt Q9UBS0)
FYN (human) = FYN (human) (UniProt P06241)
PTK2B (human) = PTK2B (human) (UniProt Q14289)
TYRO3 (human) = TYRO3 (human) (UniProt Q06418)
MAPK9 (human) = MAPK9 (human) (UniProt P45984)
EPHA4 (human) = EPHA4 (human) (UniProt P54764)
CDK5 CDK5R1 p25 (human) = CDK5 CDK5R1 p25 (human) (UniProt Q00535+Q15078)
MAP3K5 (human) = MAP3K5 (human) (UniProt Q99683)
MINK1 (human) = MINK1 (human) (UniProt Q8N4C8)

Chain of ROCK2 (human) (O75116 whole entry, looked up): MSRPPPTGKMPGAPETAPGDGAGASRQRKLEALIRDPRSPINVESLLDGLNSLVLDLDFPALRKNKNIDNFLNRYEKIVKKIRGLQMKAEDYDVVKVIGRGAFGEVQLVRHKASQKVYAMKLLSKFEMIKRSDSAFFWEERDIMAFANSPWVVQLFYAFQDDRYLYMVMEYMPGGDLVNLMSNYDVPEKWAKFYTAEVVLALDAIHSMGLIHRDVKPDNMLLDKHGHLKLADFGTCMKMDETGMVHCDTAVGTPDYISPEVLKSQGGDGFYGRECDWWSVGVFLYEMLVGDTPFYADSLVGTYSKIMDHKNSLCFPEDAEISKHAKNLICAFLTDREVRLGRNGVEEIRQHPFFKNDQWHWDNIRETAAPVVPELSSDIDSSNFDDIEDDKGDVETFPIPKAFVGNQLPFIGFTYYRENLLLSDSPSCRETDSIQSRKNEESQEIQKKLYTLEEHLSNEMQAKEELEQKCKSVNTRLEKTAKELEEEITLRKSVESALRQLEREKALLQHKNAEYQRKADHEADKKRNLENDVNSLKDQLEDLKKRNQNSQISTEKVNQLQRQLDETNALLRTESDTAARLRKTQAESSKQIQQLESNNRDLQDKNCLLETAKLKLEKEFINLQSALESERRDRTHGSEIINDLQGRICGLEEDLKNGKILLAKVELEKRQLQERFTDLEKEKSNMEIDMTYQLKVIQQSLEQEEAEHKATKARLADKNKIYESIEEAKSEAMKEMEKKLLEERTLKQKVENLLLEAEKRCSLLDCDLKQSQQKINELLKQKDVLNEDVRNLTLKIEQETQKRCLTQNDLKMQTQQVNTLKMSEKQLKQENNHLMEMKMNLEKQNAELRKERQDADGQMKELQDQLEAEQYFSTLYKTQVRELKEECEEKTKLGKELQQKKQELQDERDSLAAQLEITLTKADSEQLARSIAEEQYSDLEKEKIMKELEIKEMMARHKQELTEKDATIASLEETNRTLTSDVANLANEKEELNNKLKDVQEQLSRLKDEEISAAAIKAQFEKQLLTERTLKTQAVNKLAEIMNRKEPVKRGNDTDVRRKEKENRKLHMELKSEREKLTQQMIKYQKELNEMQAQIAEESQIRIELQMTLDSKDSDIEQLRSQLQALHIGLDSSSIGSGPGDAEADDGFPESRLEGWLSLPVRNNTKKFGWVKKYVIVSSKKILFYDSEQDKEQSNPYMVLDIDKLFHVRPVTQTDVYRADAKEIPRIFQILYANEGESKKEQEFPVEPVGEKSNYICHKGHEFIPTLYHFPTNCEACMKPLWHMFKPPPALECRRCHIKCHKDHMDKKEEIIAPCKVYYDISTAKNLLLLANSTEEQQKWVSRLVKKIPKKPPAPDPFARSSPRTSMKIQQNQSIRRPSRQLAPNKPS
Chain of TBK1 (human) (Q9UHD2 whole entry, looked up): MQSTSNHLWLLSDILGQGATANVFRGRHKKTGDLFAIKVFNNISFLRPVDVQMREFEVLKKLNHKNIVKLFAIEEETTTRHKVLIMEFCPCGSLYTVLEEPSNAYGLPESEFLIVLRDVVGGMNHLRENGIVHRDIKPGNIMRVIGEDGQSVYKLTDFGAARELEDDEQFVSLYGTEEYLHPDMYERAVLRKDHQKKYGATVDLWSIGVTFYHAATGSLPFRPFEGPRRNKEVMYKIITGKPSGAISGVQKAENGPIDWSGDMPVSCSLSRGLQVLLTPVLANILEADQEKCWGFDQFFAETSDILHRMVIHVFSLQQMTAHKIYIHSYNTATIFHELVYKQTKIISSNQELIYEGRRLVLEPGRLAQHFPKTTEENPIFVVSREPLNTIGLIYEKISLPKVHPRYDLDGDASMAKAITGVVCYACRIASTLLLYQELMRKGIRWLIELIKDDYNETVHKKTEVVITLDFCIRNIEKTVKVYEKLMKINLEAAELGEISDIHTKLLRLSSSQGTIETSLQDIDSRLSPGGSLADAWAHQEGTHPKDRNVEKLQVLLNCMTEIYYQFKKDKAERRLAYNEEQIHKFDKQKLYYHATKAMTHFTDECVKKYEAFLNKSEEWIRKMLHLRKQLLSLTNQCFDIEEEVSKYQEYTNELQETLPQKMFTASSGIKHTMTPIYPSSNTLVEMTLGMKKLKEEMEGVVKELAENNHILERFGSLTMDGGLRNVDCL
Chain of MAP2K6 (human), P52564 [S207E/T211E] (P52564 whole entry S207E/T211E, looked up): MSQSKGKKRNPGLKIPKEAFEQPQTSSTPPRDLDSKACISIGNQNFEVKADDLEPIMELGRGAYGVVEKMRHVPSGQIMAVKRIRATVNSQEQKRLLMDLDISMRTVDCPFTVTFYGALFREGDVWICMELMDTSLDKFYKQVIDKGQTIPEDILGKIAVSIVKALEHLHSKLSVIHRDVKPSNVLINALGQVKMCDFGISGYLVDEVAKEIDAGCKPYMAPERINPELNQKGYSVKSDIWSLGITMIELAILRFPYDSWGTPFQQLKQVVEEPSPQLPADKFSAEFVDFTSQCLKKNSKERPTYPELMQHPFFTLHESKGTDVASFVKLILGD
Chain of LRRK2 (human) (Q5S007 whole entry, looked up): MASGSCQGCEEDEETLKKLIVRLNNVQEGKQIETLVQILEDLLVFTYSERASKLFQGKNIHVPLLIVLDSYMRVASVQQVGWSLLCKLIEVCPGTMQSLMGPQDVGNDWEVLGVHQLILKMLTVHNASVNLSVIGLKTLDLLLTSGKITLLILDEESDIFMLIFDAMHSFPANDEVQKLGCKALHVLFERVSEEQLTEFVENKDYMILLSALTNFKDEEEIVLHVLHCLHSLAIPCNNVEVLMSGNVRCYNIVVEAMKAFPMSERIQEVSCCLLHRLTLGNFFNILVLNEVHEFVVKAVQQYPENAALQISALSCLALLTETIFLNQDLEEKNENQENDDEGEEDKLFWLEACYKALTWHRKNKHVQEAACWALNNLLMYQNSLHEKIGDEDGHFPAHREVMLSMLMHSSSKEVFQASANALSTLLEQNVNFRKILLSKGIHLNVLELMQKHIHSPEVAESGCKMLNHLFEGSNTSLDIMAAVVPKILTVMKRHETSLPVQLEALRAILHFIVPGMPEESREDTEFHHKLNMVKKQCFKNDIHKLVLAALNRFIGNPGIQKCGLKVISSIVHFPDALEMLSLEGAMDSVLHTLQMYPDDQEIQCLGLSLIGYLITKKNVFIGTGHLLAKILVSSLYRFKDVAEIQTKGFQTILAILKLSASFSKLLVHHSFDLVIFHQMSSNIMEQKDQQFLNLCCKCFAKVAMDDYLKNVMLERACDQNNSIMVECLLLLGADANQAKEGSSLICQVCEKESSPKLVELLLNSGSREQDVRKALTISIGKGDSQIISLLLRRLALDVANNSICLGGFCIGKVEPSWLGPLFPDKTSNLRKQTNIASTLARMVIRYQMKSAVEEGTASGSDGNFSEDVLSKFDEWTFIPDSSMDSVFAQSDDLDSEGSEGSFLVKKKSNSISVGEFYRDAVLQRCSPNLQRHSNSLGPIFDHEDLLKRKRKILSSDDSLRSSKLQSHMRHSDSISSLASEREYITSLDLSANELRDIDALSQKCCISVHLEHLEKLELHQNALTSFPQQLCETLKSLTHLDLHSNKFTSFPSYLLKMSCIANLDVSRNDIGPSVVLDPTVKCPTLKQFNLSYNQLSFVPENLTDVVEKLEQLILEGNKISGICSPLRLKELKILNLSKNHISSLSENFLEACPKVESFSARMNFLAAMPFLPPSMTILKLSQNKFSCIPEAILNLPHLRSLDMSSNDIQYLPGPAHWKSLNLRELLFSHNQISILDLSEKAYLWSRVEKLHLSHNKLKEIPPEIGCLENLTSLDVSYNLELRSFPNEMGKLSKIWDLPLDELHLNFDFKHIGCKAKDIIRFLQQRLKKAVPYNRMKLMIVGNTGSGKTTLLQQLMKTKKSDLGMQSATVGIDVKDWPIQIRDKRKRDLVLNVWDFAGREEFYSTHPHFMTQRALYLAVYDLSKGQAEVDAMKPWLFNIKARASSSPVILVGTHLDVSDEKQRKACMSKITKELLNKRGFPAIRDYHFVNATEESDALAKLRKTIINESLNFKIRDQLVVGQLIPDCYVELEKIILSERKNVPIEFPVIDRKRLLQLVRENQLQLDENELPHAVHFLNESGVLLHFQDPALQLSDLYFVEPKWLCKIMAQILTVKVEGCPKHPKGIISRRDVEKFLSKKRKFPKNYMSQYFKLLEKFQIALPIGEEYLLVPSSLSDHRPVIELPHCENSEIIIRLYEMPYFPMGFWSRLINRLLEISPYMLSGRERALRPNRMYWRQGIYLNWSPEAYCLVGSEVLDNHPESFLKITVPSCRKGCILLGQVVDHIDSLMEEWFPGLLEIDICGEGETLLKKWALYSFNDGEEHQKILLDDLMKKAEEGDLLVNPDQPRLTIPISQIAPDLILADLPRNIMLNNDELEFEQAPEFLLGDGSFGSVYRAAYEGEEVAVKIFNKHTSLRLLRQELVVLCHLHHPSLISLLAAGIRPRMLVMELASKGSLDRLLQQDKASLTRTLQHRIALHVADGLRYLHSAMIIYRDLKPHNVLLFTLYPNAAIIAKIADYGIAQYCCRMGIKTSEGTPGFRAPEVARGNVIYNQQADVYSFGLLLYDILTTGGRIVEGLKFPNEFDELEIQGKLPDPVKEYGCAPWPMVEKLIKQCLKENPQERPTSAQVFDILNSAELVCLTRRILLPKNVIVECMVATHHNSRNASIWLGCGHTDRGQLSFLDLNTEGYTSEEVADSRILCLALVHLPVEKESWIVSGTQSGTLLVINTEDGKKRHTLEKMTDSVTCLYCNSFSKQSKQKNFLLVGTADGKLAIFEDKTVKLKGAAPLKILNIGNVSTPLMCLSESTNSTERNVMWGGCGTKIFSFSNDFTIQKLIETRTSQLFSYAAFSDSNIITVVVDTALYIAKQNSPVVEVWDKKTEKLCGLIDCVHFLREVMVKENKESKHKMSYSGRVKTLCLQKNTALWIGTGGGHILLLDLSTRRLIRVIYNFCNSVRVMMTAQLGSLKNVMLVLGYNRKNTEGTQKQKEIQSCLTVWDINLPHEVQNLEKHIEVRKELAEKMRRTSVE

Compound: O=C1Nc2ccc(Br)cc2/C1=C\c1cc2c([nH]1)CCCC2
- residual activity (PIM1 (human)): 101%
- residual activity (PRKCI (human)): 92%
- residual activity (ROCK2 (human)): 92.8%
- residual activity (ADRBK1 (human)): 105%
- residual activity (PNCK (human)): 98.6%
- residual activity (LTK (human)): 70.6%
- residual activity (MARK4 (human)): 82.9%
- residual activity (GRK7 (human)): 85.2%
- residual activity (EPHA1 (human)): 93.1%
- residual activity (MARK3 (human)): 84.9%
- residual activity (ADRBK2 (human)): 89.9%
- residual activity (CLK1 (human)): 97.2%
- residual activity (PTK2 (human)): 81.9%
- residual activity (CDK1 CCNA2 (human)): 96.3%
- residual activity (RAF1 (human)): 88.2%
- residual activity (MAPK11 (human)): 96.8%
- residual activity (ROS1 (human)): 98.6%
- residual activity (CHEK2 (human)): 68.2%
- residual activity [1]: 110%
- residual activity (WNK2 (human)): 101%
- residual activity (MELK (human)): 75.6%
- residual activity (STK39 (human)): 86%
- residual activity (BRSK2 (human)): 93.8%
- residual activity (CSNK1G1 (human)): 102%
- residual activity (TEC (human)): 129%
- residual activity (PDPK1 (human)): 95.3%
- residual activity (LRRK2 (human)): 7.03%
- residual activity [2]: 56.1%
- residual activity (CDK6 CCND1 (human)): 90.4%
- residual activity (CDK2 CCNE1 (human)): 96%
- residual activity (NEK2 (human)): 87.9%
- residual activity (NEK7 (human)): 103%
- residual activity (TBK1 (human)): 66.9%
- residual activity (RPS6KB2 (human)): 102%
- residual activity (FYN (human)): 87.5%
- residual activity (PTK2B (human)): 82.4%
- residual activity (TYRO3 (human)): 104%
- residual activity (MAPK9 (human)): 99.4%
- residual activity (EPHA4 (human)): 94.8%
- residual activity (CDK5 CDK5R1 p25 (human)): 91.3%
- residual activity (MAP3K5 (human)): 101%
- residual activity (MINK1 (human)): 26.4%

Compound: CS(=O)(=O)CCNCc1ccc(-c2ccc3ncnc(Nc4ccc(OCc5cccc(F)c5)c(Cl)c4)c3c2)o1
- residual activity (PIM1 (human)): 99%
- residual activity (PRKCI (human)): 106%
- residual activity (ROCK2 (human)): 92.7%
- residual activity (ADRBK1 (human)): 94.8%
- residual activity (PNCK (human)): 98.1%
- residual activity (LTK (human)): 100%
- residual activity (MARK4 (human)): 104%
- residual activity (GRK7 (human)): 95.8%
- residual activity (EPHA1 (human)): 99.3%
- residual activity (MARK3 (human)): 95.9%
- residual activity (ADRBK2 (human)): 96.7%
- residual activity (CLK1 (human)): 107%
- residual activity (PTK2 (human)): 104%
- residual activity (CDK1 CCNA2 (human)): 101%
- residual activity (RAF1 (human)): 85.9%
- residual activity (MAPK11 (human)): 101%
- residual activity (ROS1 (human)): 107%
- residual activity (CHEK2 (human)): 96.8%
- residual activity [1]: 95.4%
- residual activity (WNK2 (human)): 102%
- residual activity (MELK (human)): 88.5%
- residual activity (STK39 (human)): 100%
- residual activity (BRSK2 (human)): 106%
- residual activity (CSNK1G1 (human)): 105%
- residual activity (TEC (human)): 101%
- residual activity (PDPK1 (human)): 86.4%
- residual activity (LRRK2 (human)): 76.9%
- residual activity [2]: 93.3%
- residual activity (CDK6 CCND1 (human)): 100%
- residual activity (CDK2 CCNE1 (human)): 98.8%
- residual activity (NEK2 (human)): 118%
- residual activity (NEK7 (human)): 98.7%
- residual activity (TBK1 (human)): 103%
- residual activity (RPS6KB2 (human)): 100%
- residual activity (FYN (human)): 99.4%
- residual activity (PTK2B (human)): 101%
- residual activity (TYRO3 (human)): 98.9%
- residual activity (MAPK9 (human)): 98.1%
- residual activity (EPHA4 (human)): 101%
- residual activity (CDK5 CDK5R1 p25 (human)): 90.4%
- residual activity (MAP3K5 (human)): 105%
- residual activity (MINK1 (human)): 111%

Compound: O=C(c1cc2cc(O)ccc2[nH]1)c1cc2cc(O)ccc2[nH]1
- residual activity (PIM1 (human)): 76.1%
- residual activity (PRKCI (human)): 98.4%
- residual activity (ROCK2 (human)): 92.9%
- residual activity (ADRBK1 (human)): 98.2%
- residual activity (PNCK (human)): 105%
- residual activity (LTK (human)): 91.6%
- residual activity (MARK4 (human)): 55.3%
- residual activity (GRK7 (human)): 99.8%
- residual activity (EPHA1 (human)): 81.1%
- residual activity (MARK3 (human)): 84.4%
- residual activity (ADRBK2 (human)): 102%
- residual activity (CLK1 (human)): 82.1%
- residual activity (PTK2 (human)): 109%
- residual activity (CDK1 CCNA2 (human)): 88.2%
- residual activity (RAF1 (human)): 104%
- residual activity (MAPK11 (human)): 95.7%
- residual activity (ROS1 (human)): 105%
- residual activity (CHEK2 (human)): 80.1%
- residual activity [1]: 93.6%
- residual activity (WNK2 (human)): 96.6%
- residual activity (MELK (human)): 49.2%
- residual activity (STK39 (human)): 97.6%
- residual activity (BRSK2 (human)): 44.3%
- residual activity (CSNK1G1 (human)): 93.1%
- residual activity (TEC (human)): 105%
- residual activity (PDPK1 (human)): 97.2%
- residual activity (LRRK2 (human)): 87.2%
- residual activity [2]: 67.1%
- residual activity (CDK6 CCND1 (human)): 81.2%
- residual activity (CDK2 CCNE1 (human)): 65%
- residual activity (NEK2 (human)): 101%
- residual activity (NEK7 (human)): 101%
- residual activity (TBK1 (human)): 35%
- residual activity (RPS6KB2 (human)): 102%
- residual activity (FYN (human)): 28.8%
- residual activity (PTK2B (human)): 85.5%
- residual activity (TYRO3 (human)): 76.4%
- residual activity (MAPK9 (human)): 116%
- residual activity (EPHA4 (human)): 109%
- residual activity (CDK5 CDK5R1 p25 (human)): 52.6%
- residual activity (MAP3K5 (human)): 89.6%
- residual activity (MINK1 (human)): 9.87%

Compound: Cc1nc(-c2ccccc2)c(-c2ccncc2)o1
- residual activity (PIM1 (human)): 105%
- residual activity (PRKCI (human)): 101%
- residual activity (ROCK2 (human)): 97.6%
- residual activity (ADRBK1 (human)): 100%
- residual activity (PNCK (human)): 96.6%
- residual activity (LTK (human)): 107%
- residual activity (MARK4 (human)): 103%
- residual activity (GRK7 (human)): 98.3%
- residual activity (EPHA1 (human)): 93.8%
- residual activity (MARK3 (human)): 107%
- residual activity (ADRBK2 (human)): 101%
- residual activity (CLK1 (human)): 105%
- residual activity (PTK2 (human)): 106%
- residual activity (CDK1 CCNA2 (human)): 94.7%
- residual activity (RAF1 (human)): 92.6%
- residual activity (MAPK11 (human)): 101%
- residual activity (ROS1 (human)): 96%
- residual activity (CHEK2 (human)): 96.6%
- residual activity [1]: 99.3%
- residual activity (WNK2 (human)): 101%
- residual activity (MELK (human)): 105%
- residual activity (STK39 (human)): 97.1%
- residual activity (BRSK2 (human)): 95%
- residual activity (CSNK1G1 (human)): 91.1%
- residual activity (TEC (human)): 127%
- residual activity (PDPK1 (human)): 96.9%
- residual activity (LRRK2 (human)): 96.8%
- residual activity [2]: 108%
- residual activity (CDK6 CCND1 (human)): 101%
- residual activity (CDK2 CCNE1 (human)): 93.4%
- residual activity (NEK2 (human)): 116%
- residual activity (NEK7 (human)): 102%
- residual activity (TBK1 (human)): 88%
- residual activity (RPS6KB2 (human)): 96%
- residual activity (FYN (human)): 99.8%
- residual activity (PTK2B (human)): 100%
- residual activity (TYRO3 (human)): 109%
- residual activity (MAPK9 (human)): 98.2%
- residual activity (EPHA4 (human)): 112%
- residual activity (CDK5 CDK5R1 p25 (human)): 97%
- residual activity (MAP3K5 (human)): 102%
- residual activity (MINK1 (human)): 97.9%
